In PubChem BioAssay (NCI):
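Method: 48-hour compound exposure of cells in 96-well plates, five concentrations, linear interpolation of endpoints. GI50 marks 50% less growth. At the TGI there is no net growth.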

What was measured:
Experiment in all cases: DTP human tumour cell line panel, 48 h
UO-31 renal = system: UO-31 renal
SK-MEL-28 melanoma = system: SK-MEL-28 melanoma
PC-3 prostate = system: PC-3 prostate
UACC-257 melanoma = system: UACC-257 melanoma
MDA-MB-231 breast = system: MDA-MB-231 breast
EKVX NSCLC = system: EKVX NSCLC
TK-10 renal = system: TK-10 renal
BT-549 breast = system: BT-549 breast
OVCAR-5 ovarian = system: OVCAR-5 ovarian
A498 renal = system: A498 renal
HCT-116 colon = system: HCT-116 colon

COc1cc(/C=C2\CN(S(=O)(=O)c3ccc(C)cc3)C/C(=C\c3cc(CN4CCCCC4)c(O)c(OC)c3)C2=O)cc(CN2CCCCC2)c1O
GI50 (UO-31 renal): 1.6 µM | TGI (UO-31 renal): 3.03 µM | GI50 (SK-MEL-28 melanoma): 1.61 µM | TGI (SK-MEL-28 melanoma): 3.13 µM | GI50 (PC-3 prostate): 1.87 µM | TGI (PC-3 prostate): 4.75 µM | GI50 (UACC-257 melanoma): 1.45 µM | TGI (UACC-257 melanoma): 3.02 µM | GI50 (MDA-MB-231 breast): 1.14 µM | TGI (MDA-MB-231 breast): 2.77 µM | GI50 (EKVX NSCLC): 1.98 µM | TGI (EKVX NSCLC): 4.58 µM | GI50 (TK-10 renal): 1.98 µM | TGI (TK-10 renal): 3.63 µM | GI50 (BT-549 breast): 1.38 µM | TGI (BT-549 breast): 2.77 µM | GI50 (OVCAR-5 ovarian): 1.88 µM | TGI (OVCAR-5 ovarian): 3.4 µM

NC(Cc1c[nH]c2ccccc12)C(=O)O (stereo not given)
TGI (UO-31 renal): > 300 µM | TGI (SK-MEL-28 melanoma): > 300 µM | TGI (A498 renal): > 13.9 µM | TGI (UACC-257 melanoma): > 300 µM | TGI (EKVX NSCLC): > 300 µM | TGI (OVCAR-5 ovarian): > 300 µM | TGI (HCT-116 colon): > 300 µM
